Assay results from publication PMC11783601, “Analogue-Sensitive Inhibition of Histone Demethylases Uncovers Member-Specific Function in Ribosomal Protein Synthesis” (Journal of the American Chemical Society, 2025).

How the values were obtained:
TET3 = biological target: T1, TET3 (Homo sapiens, UniProt O43151); assay: Activity of full-length TET in HEK293T cells, 5hmC dot blot; assay type: cell-based; settings: dot-blot with 5hmC antibody
T1 construct: transfected with full-length TET1/3 constructs; expressed in transfected cells; host or cells: HEK293T
T1 sequence (O43151 whole entry): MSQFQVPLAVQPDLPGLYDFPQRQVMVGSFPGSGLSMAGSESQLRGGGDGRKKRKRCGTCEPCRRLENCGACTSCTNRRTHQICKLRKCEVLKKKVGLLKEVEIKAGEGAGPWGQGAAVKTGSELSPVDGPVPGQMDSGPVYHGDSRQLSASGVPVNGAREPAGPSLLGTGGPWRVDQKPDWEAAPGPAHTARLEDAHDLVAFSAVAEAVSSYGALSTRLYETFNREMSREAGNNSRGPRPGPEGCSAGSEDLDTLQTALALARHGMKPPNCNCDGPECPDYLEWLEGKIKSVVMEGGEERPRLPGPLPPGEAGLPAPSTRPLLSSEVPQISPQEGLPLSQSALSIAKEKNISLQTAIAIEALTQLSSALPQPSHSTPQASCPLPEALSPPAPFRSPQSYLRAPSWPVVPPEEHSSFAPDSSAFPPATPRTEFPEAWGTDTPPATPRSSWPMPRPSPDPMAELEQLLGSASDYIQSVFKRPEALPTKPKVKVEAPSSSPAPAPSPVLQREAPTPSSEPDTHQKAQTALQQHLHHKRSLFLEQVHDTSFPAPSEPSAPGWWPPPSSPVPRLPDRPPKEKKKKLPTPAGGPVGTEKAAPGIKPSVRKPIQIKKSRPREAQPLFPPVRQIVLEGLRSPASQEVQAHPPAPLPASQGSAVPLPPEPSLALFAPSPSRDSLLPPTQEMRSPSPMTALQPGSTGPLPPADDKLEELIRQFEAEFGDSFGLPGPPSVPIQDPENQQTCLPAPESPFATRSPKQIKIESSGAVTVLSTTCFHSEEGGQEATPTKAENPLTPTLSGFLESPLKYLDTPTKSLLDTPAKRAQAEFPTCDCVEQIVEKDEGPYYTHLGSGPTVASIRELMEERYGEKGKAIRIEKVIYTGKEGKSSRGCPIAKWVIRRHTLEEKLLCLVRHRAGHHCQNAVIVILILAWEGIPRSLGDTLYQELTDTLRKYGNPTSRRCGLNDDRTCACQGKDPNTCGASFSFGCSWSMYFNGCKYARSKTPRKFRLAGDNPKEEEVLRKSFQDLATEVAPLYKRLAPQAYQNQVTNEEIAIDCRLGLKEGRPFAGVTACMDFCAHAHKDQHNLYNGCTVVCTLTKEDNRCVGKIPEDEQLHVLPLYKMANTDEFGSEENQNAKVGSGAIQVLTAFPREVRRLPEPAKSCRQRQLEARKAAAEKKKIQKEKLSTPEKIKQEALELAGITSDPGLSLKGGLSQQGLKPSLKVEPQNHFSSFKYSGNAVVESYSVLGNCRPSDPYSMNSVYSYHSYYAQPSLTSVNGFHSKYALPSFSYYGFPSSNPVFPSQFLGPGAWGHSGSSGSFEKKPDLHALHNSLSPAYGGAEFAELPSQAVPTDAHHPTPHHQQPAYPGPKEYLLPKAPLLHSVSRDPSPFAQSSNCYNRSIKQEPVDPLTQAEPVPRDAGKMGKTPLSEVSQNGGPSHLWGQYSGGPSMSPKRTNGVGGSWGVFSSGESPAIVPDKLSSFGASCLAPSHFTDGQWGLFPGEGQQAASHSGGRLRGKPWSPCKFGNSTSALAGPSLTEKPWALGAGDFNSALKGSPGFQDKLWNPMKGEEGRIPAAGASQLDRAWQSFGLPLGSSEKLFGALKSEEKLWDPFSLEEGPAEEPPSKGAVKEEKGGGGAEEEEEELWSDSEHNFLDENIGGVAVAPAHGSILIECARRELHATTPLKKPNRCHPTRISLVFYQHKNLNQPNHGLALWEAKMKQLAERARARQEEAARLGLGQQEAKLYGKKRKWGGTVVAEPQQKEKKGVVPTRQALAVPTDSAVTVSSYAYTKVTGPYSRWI
Experimental: (§1) were quantified with Bradford assay (Bio-Rad laboratories) using BSA as a standard and used for
(§2) 14. Expression and activity of full-length TET1 and 3 in HEK293T cells
(§3) To determine the effect of 6A on TET1 and TET3 activity, HEK293T cells were plated in 6 well
(§4) plates and transfected with full-length TET1/3 constructs. Briefly, 2ug of TET1/3 or Empty Vector
(§5) control per well was added to 200µL of JetOptimus buffer and vortexed followed by addition of
(§6) 3µL JetOptimus reagent. The solution was vortexed and left to sit at room temperature for 10
(§7) minutes. The solution was then added to 1.8mL of DMEM and added to the cells in culture plate.
(§8) The cells were left for 4 hours at 37 °C incubator at 5% CO2. The media was aspirated and replaced
(§9) with 2mL of DMEM and 100µM of 6A was added or equivalent volume of DMSO and left in the
(§10) incubator for 24 hours. Cells were then collected and subject to genomic DNA isolation using
(§11) Fisher GeneJET gemoic DNA Purification Kit (Fisher K0721) following manufactures protocol.
(§12) 1000ng of gDNA, as measured via nanodrop, was then subject to Dot Blot experiment. Briefly,
(§13) 20µL of 1000ng gDNA was added to 40µL of 2M NaOH-50mM EDTA solution for 3 minutes at
(§14) room temperature. 140µL of 10mM Tris/1mM EDTA pH 8.0 (TE) buffer and heated at 95 °C for […]

TET1 = biological target: T2, TET1 (Homo sapiens, UniProt Q8NFU7); assay: as above; assay type: cell-based; settings: dot-blot with 5hmC antibody
T2 construct: transfected with full-length TET1/3 constructs; expressed in transfected cells; host or cells: HEK293T
T2 sequence (Q8NFU7 whole entry): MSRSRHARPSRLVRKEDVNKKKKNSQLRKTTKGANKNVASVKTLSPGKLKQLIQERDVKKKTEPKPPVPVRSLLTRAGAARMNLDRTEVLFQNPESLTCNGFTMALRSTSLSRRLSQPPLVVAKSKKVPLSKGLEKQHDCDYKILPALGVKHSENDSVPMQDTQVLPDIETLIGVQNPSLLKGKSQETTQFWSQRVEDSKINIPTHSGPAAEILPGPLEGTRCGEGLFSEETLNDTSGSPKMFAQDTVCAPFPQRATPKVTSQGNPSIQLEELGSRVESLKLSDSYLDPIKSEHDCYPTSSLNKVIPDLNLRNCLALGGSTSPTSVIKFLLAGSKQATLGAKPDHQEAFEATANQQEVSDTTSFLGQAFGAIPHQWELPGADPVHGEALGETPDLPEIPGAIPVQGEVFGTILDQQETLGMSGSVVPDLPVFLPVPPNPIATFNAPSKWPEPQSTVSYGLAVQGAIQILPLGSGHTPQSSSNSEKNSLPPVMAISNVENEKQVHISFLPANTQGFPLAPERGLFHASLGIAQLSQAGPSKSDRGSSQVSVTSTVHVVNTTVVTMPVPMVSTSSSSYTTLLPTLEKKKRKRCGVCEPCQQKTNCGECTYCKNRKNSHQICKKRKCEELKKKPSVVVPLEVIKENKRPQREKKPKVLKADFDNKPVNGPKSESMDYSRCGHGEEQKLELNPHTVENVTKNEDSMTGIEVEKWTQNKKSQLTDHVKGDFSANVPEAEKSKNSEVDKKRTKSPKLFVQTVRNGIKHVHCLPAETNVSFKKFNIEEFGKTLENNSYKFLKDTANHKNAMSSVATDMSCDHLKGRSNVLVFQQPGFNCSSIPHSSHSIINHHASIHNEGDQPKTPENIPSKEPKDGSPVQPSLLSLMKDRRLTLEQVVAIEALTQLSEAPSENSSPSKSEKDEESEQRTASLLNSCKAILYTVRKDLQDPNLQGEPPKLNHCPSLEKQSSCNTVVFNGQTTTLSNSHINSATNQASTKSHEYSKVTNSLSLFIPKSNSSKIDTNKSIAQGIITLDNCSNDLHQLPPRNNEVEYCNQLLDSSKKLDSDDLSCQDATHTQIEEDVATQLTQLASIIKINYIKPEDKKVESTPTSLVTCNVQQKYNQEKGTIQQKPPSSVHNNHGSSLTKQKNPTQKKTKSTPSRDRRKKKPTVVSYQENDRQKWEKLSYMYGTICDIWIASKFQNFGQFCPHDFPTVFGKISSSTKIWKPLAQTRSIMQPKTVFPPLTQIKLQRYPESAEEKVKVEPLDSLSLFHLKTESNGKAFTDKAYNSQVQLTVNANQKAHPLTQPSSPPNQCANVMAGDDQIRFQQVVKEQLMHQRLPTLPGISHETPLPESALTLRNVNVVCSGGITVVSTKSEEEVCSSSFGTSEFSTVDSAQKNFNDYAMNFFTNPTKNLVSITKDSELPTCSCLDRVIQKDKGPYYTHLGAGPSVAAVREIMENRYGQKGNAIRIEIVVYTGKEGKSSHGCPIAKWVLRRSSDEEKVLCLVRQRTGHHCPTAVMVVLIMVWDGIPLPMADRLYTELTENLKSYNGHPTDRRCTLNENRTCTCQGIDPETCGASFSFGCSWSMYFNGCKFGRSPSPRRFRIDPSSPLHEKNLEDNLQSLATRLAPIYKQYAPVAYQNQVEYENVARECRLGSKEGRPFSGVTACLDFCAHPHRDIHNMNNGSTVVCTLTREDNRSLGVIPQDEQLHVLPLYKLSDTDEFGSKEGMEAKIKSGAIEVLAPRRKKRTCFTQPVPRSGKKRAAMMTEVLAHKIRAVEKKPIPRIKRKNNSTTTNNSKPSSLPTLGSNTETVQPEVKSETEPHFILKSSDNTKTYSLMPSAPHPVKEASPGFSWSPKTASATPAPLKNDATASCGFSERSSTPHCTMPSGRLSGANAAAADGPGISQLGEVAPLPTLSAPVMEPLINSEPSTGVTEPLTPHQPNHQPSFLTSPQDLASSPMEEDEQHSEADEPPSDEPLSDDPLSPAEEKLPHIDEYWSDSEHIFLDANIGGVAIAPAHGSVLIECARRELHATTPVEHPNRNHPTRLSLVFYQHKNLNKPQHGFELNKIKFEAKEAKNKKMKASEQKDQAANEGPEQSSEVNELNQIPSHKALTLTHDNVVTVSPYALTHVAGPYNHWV
Experimental: as §1, §2, §3, §4, §5, §6, §7, §8, §9, §10, §11, §12, §13, §14

KDM4A-F185A = biological target: T3, KDM4A-F185A (Homo sapiens, UniProt O75164, F185A); assay: MALDI-MS end-point demethylase assay on H3K9me3 peptide; assay type: biochemical; settings: H3K9me3 peptide, 200 µM 2OG, fixed concentration of NOG analogue
T3 construct: human KDM4A-jmjC domain (catalytic domain of KDM4A); 6xHis (N); host or cells: E. coli BL21 (DE3)
T3 sequence (O75164 142-308 F185A limits assumed): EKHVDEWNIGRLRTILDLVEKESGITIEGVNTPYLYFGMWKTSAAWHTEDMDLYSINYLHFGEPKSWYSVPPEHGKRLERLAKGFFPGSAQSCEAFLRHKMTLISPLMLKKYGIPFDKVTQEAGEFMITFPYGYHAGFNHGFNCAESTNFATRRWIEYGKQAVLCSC
Description: To develop an appropriate inhibitor, we selected N-oxalyl glycine (NOG, 2) scaffold because of its structural similarity with 2OG and the ability to inhibit 2OG-utilizing enzymes including KDMs (Figure 1C).[29]−[31] Substituting −CH2– at C3 of 2OG with −NH– in NOG prevents its oxidative decarboxylation by KDMs, making the inhibitor cofactor-competitive. […] We synthesized a panel of eight NOG analogues (3–10), derived from L-amino acids, carrying varied steric substituents at C4, with the reasoning that a bulky substituent at C4 would selectively fit into the expanded pocket of F185A over wild type KDM4A (Figures 2B and S1–S6, Schemes S1 and S2). The inhibitory effect of each compound was determined based on the extent of enzyme-catalyzed demethylation of a canonical peptide substrate corresponding to the N-terminus of histone 3 carrying trimethylated lysine at position 9 (H3K9me3). […] Such orthogonal inhibition of the engineered demethylase constitutes a powerful chemical probe to study the functions of a specific member of an enzyme family without issues of off-target activity. […]
assay (Biorad) kit with BSA concentrations as a standard. […]
8. Demethylase activity of the wild type and mutant KDM4 proteins on peptide substrate To monitor enzymatic activity, a demethylase activity assay was optimized and then observed through MALDI-TOF.7 Each histone demethylase assay sample included either wild type or mutant enzyme (10µM KDM4A, 7.5µM KDM4C, 10µM KDM4D, or 1µM KDM4E), 10 µM peptide, 200 µM 2OG, 50 mM Tris pH 8, […], 0-200µM NOG analogue, and 2 mM L-ascorbic acid with a total assay volume of 10 µL. Fe(II) supplement and L-ascorbic acid […]
Lastly, the 2OG and peptide were […]
positive mode and analyzed on Bruker FlexAnalysis software. The percent demethylated peptide […]
the multiple demethylation events on the peptide. […]
varying concentrations (0-10 µM). […] The fluorescence intensity was measured with excitation = 340 nm and emission = 490 nm on a TECAN Infinite M1000Pro. […]
The set up and analysis for IC50 of L-Leu NOG against KDM4A F185A enzyme was similar to that described in the coupled fluorescence assay section, but adjusted to function as an end point assay. […]
and varying concentration of compounds (NOGs 6, 9 and 10) and a substrate cocktail (200 µM 2OG and 60 µM H3K9me3 peptide). Different concentrations of NOG 6 were measured at one time point ranging for 1-5 hours. For 9 and 10, the same set-up remained, but enzymatic activity was measured via MALDI-TOF analysis, and relative activity and inhibition was calculated for different NOG concentrations as described above. […]
and analyzed on Bruker FlexAnalysis software. The percent demethylated peptide was calculated by first multiplying the K27me1 peak by 2 and the K27me0 peak by 3 to account for the multiple

Row | Structure (SMILES) | inhibition of TET3 5hmC formation (TET3) | inhibition of TET1 5hmC formation (TET1) | inhibition of F185A mutant demethylase activity (MALDI-MS) (KDM4A-F185A)
1 | CCCCCCCCOC(=O)C(=O)NC(CC(C)C)C(=O)O [6A, L-Leu octyl-ester NOG] | No inhibition | No inhibition | 
2 | CC(C)CC(NC(=O)C(=O)O)C(=O)O (stereo not drawn) [compound 6, N-oxalyl leucine] |  |  | complete inhibition
